# Assay results as given in PubChem BioAssay AID179 (DTP/NCI, 2004).
# Activity calls are given as the source filed them.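 How the source made its calls: active means compounds giving half or more protection of infected cells from virus-caused growth loss, again on retest; inactive means the rest.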
# Tested on: CEM cells HIV-1 protection, formazan growth assay
# Test: NCI AIDS Antiviral Assay
# Conditions: for IC50: measured here: growth of uninfected CEM cells
# In short: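 Category rules: moderately active means at least 50% protection on retest, and confirmed active means 100% protection reproducibly. The underlying data came from a formazan growth assay in HIV-1-infected CEM cells.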
SMILES,EC50,IC50,outcome
Cc1ccccc1N1C(=O)[N+]2(CCCCC2)N=C1[O-],> 955 µM,295 µM,–
Cc1cc(Br)cc(C)c1NC(=O)C(=O)C1C(=O)C(CC2C(=O)c3ccccc3C2=O)C(=O)CC1(C)C (configuration not stated),> 18.2 µM,> 18.2 µM,–
O=C(Cn1c2ccc(Br)cc2c2nc3ccccc3nc21)Nc1ccccc1,> 100 µM,> 100 µM,–
CC(/C=N/N(C)C1=NCCCN1)=N/N(C)C1=NCCCN1,> 200 µM,> 200 µM,–
Cc1ccc(N(C(=O)Nc2ccc(F)c(Cl)c2)C2=NCC(C)S2)cc1 (configuration not stated),> 200 µM,186 µM,–
C=C(CCC(C)C1CCC2C3=C(C(=O)CC21C)C1(C)CCC(=O)[C@@H](C)C1CC3=O)C(C)C(=O)O (some centres not stated),> 200 µM,46.8 µM,–
N/N=C1\C(=O)N(Cc2ccccc2)C(=O)C1C(=O)NCc1ccccc1 (configuration not stated),> 7.76 µM,> 7.76 µM,–
O=c1c2ccccc2nc(-c2ccccc2Cl)n1NC1OC(CO)C(O)C(O)C1O (configuration not stated),–,–,inactive
CCOC(=O)/C(=C\n1c(=S)[nH]c2cc(C)ccc21)C(=O)c1ccccc1,> 100 µM,> 100 µM,–
CN(C)CCO/N=C1/C=C2CC[C@H]3[C@@H]4CC[C@H](O)[C@@]4(C)CC[C@@H]3[C@@]2(C)CC1,> 200 µM,6.03 µM,–
C/C=C\CCC1CCCCN(C(=O)OC(C)(C)C)C1OCC (configuration not stated),> 158 µM,> 158 µM,–
O=C(c1ccc(Cl)cc1Cl)C1[C@H]2C(=O)N(c3ccc(Cc4ccc(N5C(=O)[C@@H]6ON(c7ccccc7)C(C(=O)c7ccc(Cl)cc7Cl)[C@@H]6C5=O)cc4)cc3)C(=O)[C@H]2ON1c1ccccc1 (some centres not stated),> 38 µM,> 38 µM,–
CC[C@]1(Cc2ccc(OC)c(OC)c2)C=[N+]([O-])O[C@H](OC2CCCCC2c2ccccc2)[C@@H]1OC(C)=O (some centres not stated),> 200 µM,30.2 µM,–
NC(=O)c1cc(NC(=O)c2ccc(C(=O)Nc3cc(C(N)=O)cc(C4=NCCN4)c3)cc2)cc(C2=NCCN2)c1,> 100 µM,> 100 µM,–
CC1(O)C(O)C(O)C1(O)CO (configuration not stated) (tested in a mixture with another compound),> 200 µM,> 200 µM,–
O=C1c2cccc3cccc(c23)C(=O)N1CCN1C(=O)c2cccc3cccc(c23)C1=O,> 200 µM,30.2 µM,–
CC=CCOc1cc(NC(=S)OC(C)C)ccc1Cl (mixture of isomers),0.126 µM,24 µM,–
CCCCNC(=S)Nc1nc(C(=O)NNC(=S)Nc2ccccc2)cs1,58.9 µM,> 200 µM,–
O=C1C(c2ccc(Br)cc2)=[N+]([O-])c2ccccc21,–,–,inactive
CC(C)(CCCCC(C)(C)NC1=NCCO1)NC1=NCCO1,> 200 µM,77.6 µM,–

SMILES,EC50,IC50,outcome
O=c1c(O)c(O)c1=O.[NH2-].[NH2-].[NH2-].[NH2-].[NH2-].[Ru+5],> 21.4 µM,> 21.4 µM,–
O=C1N2CCCSC2=NC1(c1ccccc1)c1ccccc1,–,–,inactive
N#CC1Sc2ccccc2-n2cccc21 (configuration not stated),–,–,inactive
O=C1CC(=O)NP(=O)(Oc2ccccc2)N1,> 1050 µM,> 1050 µM,–
COc1cc(C(=O)Oc2c(C#N)sc3c2c(=O)n(-c2ccccc2)c(=S)n3-c2ccccc2)cc(OC)c1OC,> 200 µM,0.617 µM,–
O=P1(O)Cc2ccccc2-c2ccccc21,> 200 µM,> 200 µM,–
CC(=O)OC12/C(=N/O)CCCCCC1c1ccccc12 (configuration not stated),> 200 µM,> 200 µM,–
CNc1ncnc2c1ncn2C1OC(CO)C(O)C1O (configuration not stated),–,–,inactive
COC1=NC2=CC(=O)c3c(c(O)c(C)c4c3C(=O)C(C)(O/C=C/C(OC)C(C)C(OC(C)=O)C(C)C(O)C(C)C(O)C(C)/C=C/C=C\1C)O4)C2=O (configuration not stated),> 200 µM,33.1 µM,–
Clc1cccc(Cl)c1C1ON=C(c2ccccc2)N1C12CC3CC(CC(C3)C1)C2 (configuration not stated),> 100 µM,14.5 µM,–
CC(=O)Nc1ccc(S(=O)(=O)c2ccc(NC(C)=O)cc2)cc1,> 200 µM,> 200 µM,–
COc1ccc(C2[C@H]3C(=O)N(c4ccc(Cc5ccc(N6C(=O)[C@@H]7ON(c8ccccc8)C(c8ccc(OC)cc8)[C@@H]7C6=O)cc5)cc4)C(=O)[C@H]3ON2c2ccccc2)cc1 (some centres not stated),> 4.68 µM,> 4.68 µM,–
Cc1cc(=O)n2c(cc3cccccc32)n1,–,–,inactive
CC(=O)N(/N=C\c1ccc([N+](=O)[O-])cc1)c1ccccc1,> 126 µM,> 126 µM,–
Cc1ccc(C)n1-n1c(Cc2ccccc2)n[nH]c1=O,> 200 µM,83.2 µM,–
C=C(C)[C@@H]1CC[C@]2(COC(=O)CC3(CC(=O)O)CCCC3)CC[C@]3(C)[C@H](CC[C@@H]4[C@@]5(C)CC[C@H](OC(=O)CC6(CC(=O)O)CCCC6)C(C)(C)[C@@H]5CC[C@]43C)[C@@H]12,> 200 µM,5.89 µM,–
Cc1ccccc1NC(=O)/C(=N\NC(N)=S)C(C#N)c1ccccc1 (configuration not stated),> 186 µM,> 186 µM,–
NNC(=O)N/N=C1\C(=O)N(c2ccc(Cl)c(Cl)c2)C(=O)C(=O)C1c1nc2ccccc2s1 (configuration not stated),–,–,inactive
CCOC(=O)Cc1csc2nc(-c3ccccc3)nn12,> 200 µM,132 µM,–
O=[N+]([O-])c1ccc2c(c1)C(N1CCN(CCO)CC1)Cc1ccc(F)cc1S2 (configuration not stated),> 200 µM,22.4 µM,–

SMILES,EC50,IC50,outcome
N#Cc1c(N)c2c(c(-c3ccccc3)c1-c1ccccc1)C(=O)N(NC(=O)c1ccccc1)C2=O,75.9 µM,102 µM,–
CC1OC(OCC2OC(Oc3c(-c4ccc(O)c(O)c4)oc4cc(O)cc(O)c4c3=O)C(O)C(O)C2O)C(O)C(O)C1O (configuration not stated),> 200 µM,1.02 µM,inactive
CC(=O)/C=C(/C)[O-].CCN(CC)CCNCCN.O=N[O-].[Co+3].[O-][Cl+3]([O-])([O-])[O-],> 200 µM,> 200 µM,–
OC(c1cccnc1)C(F)(F)c1nc2ccccc2o1 (configuration not stated),> 200 µM,> 200 µM,–
CC1=CC(=O)c2c(C=O)c(O)c(O)c(C(C)C)c2C1=O,> 95.5 µM,1.91 µM,–
O=c1[nH]c2ccccc2c(=O)n1/N=C\c1ccc([N+](=O)[O-])cc1,> 200 µM,> 200 µM,–
COc1ccc(NCC/C=C\[Si](C)(C)C)cc1,–,–,inactive
C/C(=C/CNc1ncnc2c1ncn2CCC#N)CO,> 200 µM,> 200 µM,–
O=C(Cn1ccnc1[N+](=O)[O-])NCc1ccc(F)cc1,> 178 µM,> 178 µM,–
C=C(Br)CN(C#N)CC(=C)Br,> 200 µM,> 200 µM,–
CC1(C)CNC[C@@]2(C)OCCOCCOCCO[C@@]3(C)CNCC(C)(C)NC(=O)[C@](C)(CNCC(C)(C)NC3=O)OCCOCCOCCO[C@](C)(CNCC(C)(C)NC2=O)C(=O)N1,> 200 µM,> 200 µM,–
COc1ccc(N=C(CS(=O)c2ccc(C)cc2)C(F)(F)F)cc1 (configuration not stated),> 200 µM,91.2 µM,–
C1COC(N2CC3CCC(CC3)C2)=N1,> 200 µM,> 200 µM,–
CCCCCCCC/C=C\CCCCCCCC(=O)N(C)N(C)C(=O)CCCCCCC/C=C/CCCCCCCC,> 200 µM,> 200 µM,–
Cc1c(C)c2ccc3oc4ccccc4c3c2oc1=O,> 38 µM,> 38 µM,–
C[C@]12CC[C@H](O)CC1CC[C@@H]1C2CC[C@]2(C)NC(=O)CCC12 (some centres not stated),–,–,inactive
CC1(C)OCC(COC(=O)NCn2cc(-c3ccccc3)nn2)O1 (configuration not stated),> 200 µM,> 200 µM,–
Clc1ccc(NC(Nc2ccc(Cl)cc2)C(Cl)(Cl)Cl)cc1,–,–,inactive
